# Data published in patent US20260356817A1, “AMINOPYRIMIDINE AND AMINOTRIAZINE DERIVATIVES AS MYC PROTEIN MODULATORS” (Sanford Burnham Prebys Medical Discovery Institute, priority 2022, published 2026).
# Read-outs that look alike come from different tables or passages of the source.
# How the values were obtained:
# [1] = tested on: retinoblastoma (Rb) protein; assay: Rb protein expression in PDX511 medulloblastoma cells (immunofluorescence); assay type: cell-based, human (patient-derived)
# [2] = tested on: PDX511 medulloblastoma cells; assay: Cell viability of PDX511 medulloblastoma cells at 4 hours; assay type: cell-based, human (patient-derived)
# Myc = Myc inhibition assay: Myc expression per cell by anti-Myc immunofluorescence, high-content imaging; assay type: cell-based, human (patient-derived medulloblastoma xenograft cells)
# Procedure, shortened: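 IC50 comes from high-content imaging of per-cell Myc immunostaining (DAPI-labelled nuclei) after 4 h compound exposure. Cells were freshly dissociated medulloblastoma PDX tumours, never passaged in vitro, grown in NSG mouse cerebellum, plated serum-free and recovered overnight before treatment.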
# [3] = Table 1, medulloblastoma PDX cells, 4 h, read-out: IC50 (Myc inhibition)
# [4] = Table 2, medulloblastoma PDX cells, 4 h, read-out: MYC Inhibition IC50
Compound,effect on expression of the retinoblastoma (Rb) protein [1],effect on cell viability [2],"IC50 (Myc; read-out: Myc expression inhibition IC50, PDX511 medulloblastoma cells, 4 h (FIG. 2A)) [µM]",IC50 (Myc; [3]) [µM],IC50 (Myc; [4]) [µM]
COc1ccc(Nc2nccc(-c3ccncc3)n2)cc1 [Compound A],no effect,no effect,11.7,,
"Oc1cncc(-c2ccnc(Nc3cccc(C(F)(F)F)c3)n2)c1 [Compound 201, 5-(2-((3-(trifluoromethyl)phenyl)amino)pyrimidin-4-yl)pyridin-3-ol]",,,,1 to 10,1 to 10
"CCc1ccccc1Nc1nccc(-c2ccc3[nH]cnc3c2)n1 [Compound 80, 4-(1H-benzo[d]imidazol-5-yl)-N-(2-ethylphenyl)pyrimidin-2-amine]",,,,1 to 10,1 to 10
"COc1cccc(-c2ccnc(Nc3cccc(Cl)c3)n2)c1 [Compound 249, N-(3-chlorophenyl)-4-(3-methoxyphenyl)pyrimidin-2-amine]",,,,1 to 10,1 to 10
"O=C(Nc1cccc(Nc2nccc(-c3ccc4[nH]cnc4c3)n2)c1)c1ccco1 [Compound 254, N-(3-((4-(1H-benzo[d]imidazol-5-yl)pyrimidin-2-yl)amino)phenyl)furan-2-carboxamide]",,,,< 0.2,< 0.2
"Oc1ccc(-c2ccnc(Nc3cccc(C(F)(F)F)c3)n2)cn1 [Compound 211, 5-(2-((3-(trifluoromethyl)phenyl)amino)pyrimidin-4-yl)pyridin-2-ol]",,,,0.2 to 1,0.2 to 1
"Oc1cc(-c2ccnc(Nc3ccncc3)n2)ccn1 [Compound 190, 4-(2-(pyridin-4-ylamino)pyrimidin-4-yl)pyridin-2-ol]",,,,1 to 10,1 to 10
"FC(F)c1cccc(Nc2cc(-c3ccc4[nH]cnc4c3)ccn2)n1 [Compound 278, N-(4-(1H-benzo[d]imidazol-5-yl)pyridin-2-yl)-6-(difluoromethyl)pyridin-2-amine]",,,,< 0.2,< 0.2
"COc1cc(-c2ccnc(Nc3ccccn3)n2)ccn1 [Compound 187, 4-(2-methoxypyridin-4-yl)-N-(pyridin-2-yl)pyrimidin-2-amine]",,,,10 to 100,10 to 100
"COc1cccc(-c2ccnc(N(C)c3ccccc3)n2)c1 [Compound 247, 4-(3-methoxyphenyl)-N-methyl-N-phenylpyrimidin-2-amine]",,,,1 to 10,1 to 10
"Oc1cccc(-c2ccnc(Nc3cccc(C(F)(F)F)c3)n2)c1 [Compound 173, 3-(2-((3-(trifluoromethyl)phenyl)amino)pyrimidin-4-yl)phenol]",,,,10 to 100,10 to 100
"Oc1ccc(-c2ccnc(Nc3cccc(F)c3)n2)cn1 [Compound 213, 5-(2-((3-fluorophenyl)amino)pyrimidin-4-yl)pyridin-2-ol]",,,,1 to 10,1 to 10
"COc1cc(-c2ccnc(Nc3cccc(F)c3)n2)ccn1 [Compound 243, N-(3-fluorophenyl)-4-(2-methoxypyridin-4-yl)pyrimidin-2-amine]",,,,1 to 10,1 to 10
